Laboratory results published in US11358961B2, “Anti-HCMV compositions and methods” (Evrys Bio, LLC, priority 2014, dated 2022).

System: human cytomegalovirus (HCMV)
Experiment: Antiviral activity against HCMV in vitro (virus yield / replication assay, IE protein readout)
Format: cell-based
Details: Human betaherpesvirus 5, 96 h, read-out: HCMV IC50
Method: Assessing Antiviral Activity Against Human Cytomegalovirus (HCMV)
To assess their antiviral activity, some compounds were tested against human cytomegalovirus (HCMV) in vitro. Human MRCS cells were grown in Dulbecco's Modified Eagle Medium (DMEM) supplemented with 10% fetal bovine serum (FBS) and infected with an HCMV variant expressing GFP tagged pUL99 (the product of late viral UL99 gene) at a multiplicity of 1 infectious unit (IU) per cell. One hour later, medium of the cells was replaced with fresh medium containing the indicated compounds at 50, 25, 12.5, 6.25, 3.13, 1.56, 0.78, 0.39 μM or the carrier in which the compounds are dissolved (DMSO). Final concentration of DMSO was 0.5% in each treatment. Virus yield in the culture supernatant was determined at 96 hours after infection by infecting fresh MRCS cells and assaying viral IE1 protein expression. Results were plotted using either Prism Software or CDD Vault (CDD Vault was developed by Collaborative Drug Discovery, Inc., 1633 Bayshore Hwy, Suite 342, Burlingame, Calif. 94010) in order to calculate IC50s.
Alternatively, antiviral efficacy of some compounds was assessed by inhibition of HCMV replication during in vitro replication assays. Briefly, confluent monolayers of MRCS fibroblasts in a 96 well plate format (˜1.0×10^4 cells/well) were infected with an AD169 strain of HCMV for one hour. After the initial incubation hour, virus containing media was removed and 100 ul of media with sequential dilutions of FORGE compounds added to each well. The concentrations of the FORGE compounds were 50 μM, 25 μM, 12.5 μM, 6.25 μM, 3.125 μM, 1.56 μM, and 0.78125 μM as well as a vehicle control (0.5% DMSO). The concentration of DMSO was constant between all conditions. Assays were performed in duplicate. Infected plates were returned to the incubator and the viral infection was allowed to progress for four days. On the fourth day, 50 μL of cell free supernatant was collected from each well and used to infect a new 96 well plate seeded with a confluent monolayer of MRCS fibroblasts along with 50 μL of media to bring the total volume to 100 μL. The next day the media was removed and the infected monolayer was fixed with cold methanol, and Immediate Early proteins were detected by immunofluorescence assays to quantify the number of cells that were infected with HCMV. IE gene expression was quantified within five random fields within each well and corresponding numbers were utilized to determine viral replication. Results from each well were normalized to the vehicle control well so as to allow a percent reduction from no drug treatment to be calculated. Results were plotted using either Prism Software or CDD Vault in order to calculate IC50s.

Structure (SMILES) | IC50 [µM]
C=C(c1ccc(-n2cccn2)cc1)c1cnc(N2CCc3ccccc3C2)s1 [Example 14] | 28.7
c1ccc(CNc2ncc(Cc3ccc(-n4cccn4)cc3)s2)cc1 [Example 21] | > 50
O=C(c1ccc2nccnc2c1)c1cnc(N2CCc3ccccc3C2)s1 [Example 5] | > 50
CC(c1cccc(-n2cccn2)c1)c1cnc(N2CCc3ccc(Br)cc3C2)s1 (centres unmarked) [Example SBX084] | 3.8
CC(C)c1ccc(CNc2ncc(Cc3ccc(-n4cccn4)cc3)s2)cc1 [Example 24] | > 50
CC(C)c1ccc(CNc2ncc(Cc3cccc(-n4cccn4)c3)s2)cc1 [Example 32] | > 50
COC(c1cccc(-n2cccn2)c1)c1cnc(N2CCc3ccc(C(N)=O)cc3C2)s1 (centres unmarked) [Example SBX087] | 1.4
C=C(c1ccc2nccnc2c1)c1cnc(N2CCc3ccccc3C2)s1 [Example 3] | > 50
N#Cc1ccc2c(c1)CN(c1ncc(Cc3cccc(-n4cccn4)c3)s1)CC2 [Example 36] | 3.3
c1cc(Cc2cnc(N3CCc4ccccc4C3)s2)cc(-n2cccn2)c1 [Example 20] | 8.9
C=C(c1cccc(-n2cccn2)c1)c1cnc(N2CCc3ccccc3C2)s1 [Example 19] | 7
CC(c1cnc(N2CCc3ccccc3C2)s1)c1c[nH]c2ccccc12 (centres unmarked) [Example 9] | 12.7
CC(c1ccc(N2CCCCC2)cc1)c1cnc(N2CCc3ccccc3C2)s1 (centres unmarked) [Example 15] | > 25
OC(c1ccc2nccnc2c1)c1cnc(N2CCc3ccccc3C2)s1 (centres unmarked) [Example 6] | 5.1
CC(c1cccc(-n2cccn2)c1)c1cnc(N2CCc3ccccc3C2)s1 (centres unmarked) [Example 18] | 1.6
CC(c1cccc(-n2cccn2)c1)c1cnc(N2CCc3ccc(C(N)=O)cc3C2)s1 (centres unmarked) [Example SBX088] | 1.6
CC(c1cccc(-n2cccn2)c1)c1cnc(N2CCc3ccc(C#N)cc3C2)s1 (centres unmarked) [Example SBX082] | 7.3
CC(C)OC1CN(c2ncc(Cc3cccc(-n4cccn4)c3)s2)C1 [Example 30] | 12
c1ccc2c(c1)CCN(c1ncc(Cc3ccc(-n4cccn4)cc3)s1)C2 [Example 16] | 12.5
C=C(c1ccc2nccnc2c1)c1cnc(NCc2ccccc2)s1 [Example 12] | > 50
c1cc(Cc2cnc(N3CCC4OCCCC4C3)s2)cc(-n2cccn2)c1 (centres unmarked) [Example 33] | 11.5

Structure (SMILES) | IC50 [µM]
CC(c1ccc(-c2ncccn2)cc1)c1cnc(N2CCc3ccccc3C2)s1 (centres unmarked) [Example 17] | 4.2
CC(Nc1ncc(Cc2ccc(-n3cccn3)cc2)s1)c1ccccc1 (centres unmarked) [Example 26] | > 50
CC(C)OC1CN(c2ncc(Cc3ccc(-n4cccn4)cc3)s2)C1 [Example 22] | > 50
c1cnn(-c2ccc(Cc3cnc(N4CCC5OCCCC5C4)s3)cc2)c1 (centres unmarked) [Example 25] | 11
CC(c1ccccc1)c1cnc(N2CCc3ccccc3C2)s1 (centres unmarked) [Example 7] | > 50
CC(c1ccc(-n2cccn2)cc1)c1cnc(N2CCc3ccccc3C2)s1 (centres unmarked) [Example 13] | 3.6
c1ccc2c(c1)CCN(c1ncc(Cc3ccc4nccnc4c3)s1)C2 [Example 4] | 5.6
CC(c1ccc2nccnc2c1)c1cnc(N2CCC(c3ccccc3)C2)s1 (centres unmarked) [Example 10] | > 25
c1cnn(-c2ccc(Cc3cnc(N4CCOCC4)s3)cc2)c1 [Example 27] | 10.3
c1cc(Cc2cnc(N3CCCc4ccccc43)s2)cc(-n2cccn2)c1 [Example 31] | > 50
N#Cc1ccc2c(c1)CN(c1ncc(Cc3ccc(-n4cccn4)cc3)s1)CC2 [Example 28] | 9.7
CC(c1cccc(-n2ccnc2)c1)c1cnc(N2CCc3ccc(C#N)cc3C2)s1 (centres unmarked) [Example SBX080] | 4.9
CC(O)(c1ccc2nccnc2c1)c1cnc(-c2cnc(Cl)s2)s1 (centres unmarked) [Example 1] | 21.4
CC(c1cccnc1)c1cnc(N2CCc3ccccc3C2)s1 (centres unmarked) [Example 8] | 16.4
c1cc(Cc2cnc(N3CCOCC3)s2)cc(-n2cccn2)c1 [Example 35] | > 27
CC(O)(c1ccc2nccnc2c1)c1cnc(N2CCc3ccccc3C2)s1 (centres unmarked) [Example 2] | 24
c1ccc2c(c1)CCCN2c1ncc(Cc2ccc(-n3cccn3)cc2)s1 [Example 23] | > 50
c1ccc(CNc2ncc(Cc3cccc(-n4cccn4)c3)s2)cc1 [Example 29] | > 50
CC(Nc1ncc(Cc2cccc(-n3cccn3)c2)s1)c1ccccc1 (centres unmarked) [Example 34] | > 50
CC(c1ccc2nccnc2c1)c1cnc(N2CCC(Cc3ccccc3)CC2)s1 (centres unmarked) [Example 11] | > 25
